Values quoted from earlier work, collected in patent US20110129510A1, “FIBROUS SURFACE STRUCTURE CONTAINING ACTIVE INGREDIENTS WITH CONTROLLED RELEASE OF ACTIVE INGREDIENTS, USE THEREOF AND METHOD FOR THE PRODUCTION THEREOF” (BASF SE, priority 2008, published 2011).
In brackets after ≈: the same amount, converted by molar mass. Read-outs that look alike come from different tables or passages of the source.

SMILES	Solubility in water (25° C.)	also measured
CC(=O)N1CCN(c2ccc(OCC3COC(Cn4ccnc4)(c4ccc(Cl)cc4Cl)O3)cc2)CC1 (stereo not drawn) [Ketoconazole]	–	Solubility in water (37° C.): 80 µg/mL (≈ 151 µM)
COC1=CC(=O)C[C@@H](C)[C@]12Oc1c(Cl)c(OC)cc(OC)c1C2=O [Griseofulvin]	0.03685 µg/mL (≈ 0.104 µM)	–
CCOC(=O)C1=C(C)NC(C)=C(C(=O)OC)C1c1cccc(Cl)c1Cl (stereo not drawn) [Felodipine]	–	Solubility in water (22° C.): 4.53 µg/mL (≈ 11.8 µM)
NC(=O)N1c2ccccc2C=Cc2ccccc21 [Carbamazipine]	–	Solubility in water (RT): 945.1 µg/mL (≈ 4000 µM)

Further lines, with some results ahead:

Solubility in water (25° C.)	SMILES	also measured
14 µg/mL (≈ 39.1 µM)	COc1ccc2c(c1)c(CC(=O)O)c(C)n2C(=O)c1ccc(Cl)cc1 [Indomethacin]	–
<10 µg/mL	Clc1ccccc1C(c1ccccc1)(c1ccccc1)n1ccnc1 [Clotrimazole]	–
